# Laboratory results taken from patent US20140243418A1, “RASAGILINE FOR PARKINSON'S DISEASE MODIFICATION” (Teva Pharmaceutical Industries, Ltd., priority 2008, published 2014).
# Several values for one entry are separate records, joined by “and”; a condition that tells them apart may be missing. Identical values can stand only once. Like-named read-outs stand apart in the source and are kept apart here.
# Test system: Early Stage PD patients
# Settings: for Primary 1: rate of change in UPDRS, weeks 12-36, 1 mg/day - placebo / Secondary Endpoint: change in total UPDRS from baseline to final visit in phase I, 1 mg/day - placebo: rasagiline 1 mg/day minus placebo; for Primary 1: rate of change in UPDRS, weeks 12-36, 2 mg/day - placebo / Secondary Endpoint: change in total UPDRS from baseline to final visit in phase I, 2 mg/day - placebo: rasagiline 2 mg/day minus placebo
# Protocol: 1 mg/day rasagiline during Phase I and Phase II; • Group 2. 2 mg/day rasagiline during Phase I and Phase II; • Group 3. placebo during Phase I followed by 1 mg/day rasagiline during Phase II; and • Group 4. placebo during Phase I followed by 2 mg/day rasagiline during Phase II.
# Thus, ‘early-start’ patients receive 72 weeks of treatment with rasagiline (1 or 2 mg once daily) and ‘delayed-start’ patients receive 36 weeks of placebo followed by 36 weeks of rasagiline (1 or 2 mg once daily). […] If subjects in either treatment group required additional anti-parkinsonian medication during the placebo-controlled stage of the trial, they could proceed directly to Phase II. Once in Phase II, no additional anti-PD therapy is permitted. If the patient requires additional medication in this stage they are discontinued from the study.
# 1 mg/day rasagiline during Phase I and Phase II (1 mg early start) • 2. 2 mg/day rasagiline during Phase I and Phase II (2 mg early start) • 3. placebo during Phase I followed by 1 mg/day rasagiline during Phase II (1 mg delayed start) • 4. placebo during Phase I followed by 2 mg/day rasagiline during Phase II (2 mg delayed start)
# If, at any stage during the placebo-controlled phase the investigator determines that a subject needs additional anti-PD therapy, the subject will proceed to Phase II of the study. The investigator, aided by a questionnaire, will give careful consideration to the issue of a subject's need for additional anti-PD therapy. Scheduled in-clinic visits will be conducted at baseline and at weeks 4, 12, 24 and 36. Therefore, altogether there will be 5 scheduled visits during this phase. Unscheduled visits may be conducted at any time to assess a subject's need for additional anti-PD therapy, for safety reasons or for any other reason.
# Thus, subjects who receive 1 mg rasagiline during Phase I will continue to receive 1 mg during Phase II, subjects who receive 2 mg rasagiline during Phase I will continue to receive 2 mg during Phase II, and subjects who receive placebo during Phase I will receive either 1 mg or 2 mg rasagiline during Phase II. The study blind will be maintained. No additional anti-PD therapy will be permitted during this phase. This applies to both the subjects who enter Phase II after completing the full 36-week duration of Phase I and to subjects who are switched from Phase I to Phase II because of a need of additional anti-PD therapy. If, the investigator determines that a subject needs additional anti-PD therapy during Phase II, the subject will be prematurely withdrawn from the study. The investigator, aided by a questionnaire, will give careful consideration to the issue of a subject's need for additional anti-PD therapy. Scheduled in-clinic visits will be conducted every 6 weeks. Therefore, altogether there will be 6 visits during this phase—at weeks 42, 48, 54, 60, 66 and 72. Unscheduled visits may be conducted at any time to assess a subject's need for additional anti-PD therapy, for safety reasons or for any other reason.
# [1] = Baseline UPDRS > 25.5 (Upper Quartile)
# [2] = Baseline UPDRS ≦ 25.5 (Lower 3 Quartiles)
# [3] = rasagiline 1 mg/day, Baseline UPDRS > 25.5 (Upper Quartile)
# [4] = rasagiline 1 mg/day, Baseline UPDRS ≦ 25.5 (Lower 3 Quartiles)
# [5] = rasagiline 1 mg/day, all subjects
# [6] = rasagiline 1 mg/day, all subjects, listed as Rasagiline
# [7] = rasagiline 2 mg/day delayed-start, Baseline UPDRS > 25.5 (Upper Quartile)
# [8] = rasagiline 2 mg/day delayed-start, Baseline UPDRS ≦ 25.5 (Lower 3 Quartiles)
# [9] = rasagiline 2 mg/day delayed-start, all subjects
# [10] = rasagiline 2 mg/day early-start minus delayed-start, Baseline UPDRS > 25.5 (Upper Quartile)
# [11] = rasagiline 2 mg/day early-start minus delayed-start, Baseline UPDRS ≦ 25.5 (Lower 3 Quartiles)
# [12] = rasagiline 2 mg/day early-start, Baseline UPDRS > 25.5 (Upper Quartile)
# [13] = rasagiline 2 mg/day early-start, Baseline UPDRS ≦ 25.5 (Lower 3 Quartiles)
# [14] = rasagiline 2 mg/day early-start, all subjects
# [15] = rasagiline 2 mg/day, Baseline UPDRS > 25.5 (Upper Quartile)
# [16] = rasagiline 2 mg/day, Baseline UPDRS ≦ 25.5 (Lower 3 Quartiles)
# [17] = rasagiline 2 mg/day, all subjects
structure (smiles),measurement,setting,value
C#CCN[C@@H]1CCc2ccccc21 [rasagiline],"Primary 1: rate of change in UPDRS, weeks 12-36, 1 mg/day - placebo",[1],−0.11 UPDRS units/wk
same,"Secondary Endpoint: change in total UPDRS from baseline to final visit in phase I, 1 mg/day - placebo",[1],−6.43
same,"Primary 1: rate of change in UPDRS, weeks 12-36, 1 mg/day - placebo",[2],−0.03 UPDRS units/wk
same,"Secondary Endpoint: change in total UPDRS from baseline to final visit in phase I, 1 mg/day - placebo",[2],−2.34
same,"Primary 1: rate of change in UPDRS, weeks 12-36, 1 mg/day - placebo",all subjects,−0.05±0.02 UPDRS units/wk and −0.05 UPDRS units/wk
same,"Secondary Endpoint: change in total UPDRS from baseline to final visit in phase I, 1 mg/day - placebo",all subjects,−3.01±0.43 and −3.01
same,"Primary 1: rate of change in UPDRS, weeks 12-36",[3],0.14 UPDRS units/wk
same,Secondary Endpoint: change in total UPDRS from baseline to final visit in phase I,[3],0.27
same,"Primary 1: rate of change in UPDRS, weeks 12-36",[4],0.08 UPDRS units/wk
same,Secondary Endpoint: change in total UPDRS from baseline to final visit in phase I,[4],1.40
same,"Change from baseline to week 72 in Total-UPDRS, early- vs delayed-start, Estimate","rasagiline 1 mg/day, Completers (n = 409), MMRM (week 48-72)",−1.6
same,"Change from baseline to week 72 in Total-UPDRS, early- vs delayed-start, Estimate","rasagiline 1 mg/day, ITT cohort (observed data), MMRM (weeks 12-72)",−1.7
same,"Change from baseline to week 72 in Total-UPDRS, early- vs delayed-start, Estimate","rasagiline 1 mg/day, Imputed - primary study cohort, Imputation by means of the delayed-start group (week 48-72)",−1.2
same,"Change from baseline to week 72 in Total-UPDRS, early- vs delayed-start, Estimate","rasagiline 1 mg/day, Imputed - primary study cohort, Multiple imputation (week 48-72)",−1.8
same,"Change from baseline to week 72 in Total-UPDRS, early- vs delayed-start, Estimate","rasagiline 1 mg/day, Per protocol (n = 405), MMRM (week 48-72)",−1.6
same,"Change from baseline to week 72 in Total-UPDRS, early- vs delayed-start, Estimate","rasagiline 1 mg/day, Primary study cohort (n = 489), MMRM (week 48-72)",−1.7
same,"Change from baseline to week 72 in Total-UPDRS, early- vs delayed-start, Estimate","rasagiline 1 mg/day, Primary study cohort, ANCOVA with LOCF",−1.7
same,"Change from baseline to week 72 in Total-UPDRS, early- vs delayed-start, Estimate","rasagiline 1 mg/day, Primary study cohort, MMRM, average change from baseline across weeks 48-72",−1.6
same,"Primary 1: rate of change in UPDRS, weeks 12-36",[5],0.09 UPDRS units/wk
same,Secondary Endpoint: change in total UPDRS from baseline to final visit in phase I,[5],1.26
same,outcome of the primary analysis (three hierarchal endpoints),[5],met all three primary analysis endpoints
same,"Primary 1: rate of change in UPDRS, weeks 12-36",[6],0.09±0.02 UPDRS units/wk
same,outcome of the primary analysis (three hierarchal endpoints),[6],met all endpoints
same,Primary 2: estimated change in total UPDRS from baseline to week 72,[7],5.09
same,"Primary 3: rate of change in UPDRS, weeks 48-72",[7],0.137 UPDRS units/wk
same,Primary 2: estimated change in total UPDRS from baseline to week 72,[8],2.60
same,"Primary 3: rate if change in UPDRS, weeks 48-72",[8],0.05 UPDRS units/wk
same,Primary 2: estimated change in total UPDRS from baseline to week 72,[9],3.11
same,"Primary 3: rate of change in UPDRS, weeks 48-72",[9],0.065 UPDRS units/wk
same,Primary 2: estimated change in total UPDRS from baseline to week 72,"rasagiline 2 mg/day delayed-start, all subjects, listed as Rasagiline",3.11±0.5
same,"Primary 2: estimated change in total UPDRS from baseline to week 72, early-start-delayed-start",[10],−3.63±1.72 and −3.63
same,"Primary 3: rate of change in UPDRS, weeks 48-72, early-start-delayed start",[10],−0.03 UPDRS units/wk
same,"Primary 2: estimated change in total UPDRS from baseline to week 72, early-start-delayed-start",[11],1.10
same,"Primary 3: rate if change in UPDRS, weeks 48-72, early-start-delayed start",[11],0.05 UPDRS units/wk
same,"Primary 2: estimated change in total UPDRS from baseline to week 72, early-start-delayed-start","rasagiline 2 mg/day early-start minus delayed-start, all subjects",0.36±0.68 and 0.36
same,"Primary 3: rate of change in UPDRS, weeks 48-72, early-start-delayed start","rasagiline 2 mg/day early-start minus delayed-start, all subjects, non-inferiority margin 0.15",0.03 UPDRS units/wk
same,Primary 2: estimated change in total UPDRS from baseline to week 72,[12],1.46
same,"Primary 3: rate of change in UPDRS, weeks 48-72",[12],0.106 UPDRS units/wk
same,Primary 2: estimated change in total UPDRS from baseline to week 72,[13],3.70
same,"Primary 3: rate if change in UPDRS, weeks 48-72",[13],0.09 UPDRS units/wk
same,Primary 2: estimated change in total UPDRS from baseline to week 72,[14],3.47
same,"Primary 3: rate of change in UPDRS, weeks 48-72",[14],0.094 UPDRS units/wk
same,Primary 2: estimated change in total UPDRS from baseline to week 72,"rasagiline 2 mg/day early-start, all subjects, listed as Rasagiline",3.47±0.5
same,"Primary 1: rate of change in UPDRS, weeks 12-36, 2 mg/day - placebo",[1],−0.20 UPDRS units/wk
same,"Secondary Endpoint: change in total UPDRS from baseline to final visit in phase I, 2 mg/day - placebo",[1],−7.13
same,"Primary 1: rate of change in UPDRS, weeks 12-36, 2 mg/day - placebo",[2],−0.03 UPDRS units/wk
same,"Secondary Endpoint: change in total UPDRS from baseline to final visit in phase I, 2 mg/day - placebo",[2],−2.16
same,"Primary 1: rate of change in UPDRS, weeks 12-36, 2 mg/day - placebo",all subjects,−0.07±0.02 UPDRS units/wk and −0.07 UPDRS units/wk
same,"Secondary Endpoint: change in total UPDRS from baseline to final visit in phase I, 2 mg/day - placebo",all subjects,−3.15±0.43 and −3.15
same,"Primary 1: rate of change in UPDRS, weeks 12-36",[15],0.05 UPDRS units/wk
same,Secondary Endpoint: change in total UPDRS from baseline to final visit in phase I,[15],−0.43
same,"Primary 1: rate of change in UPDRS, weeks 12-36",[16],0.07 UPDRS units/wk
same,Secondary Endpoint: change in total UPDRS from baseline to final visit in phase I,[16],1.58
same,"Primary 1: rate of change in UPDRS, weeks 12-36",[17],0.07 UPDRS units/wk
same,Secondary Endpoint: change in total UPDRS from baseline to final visit in phase I,[17],1.11
same,outcome of the primary analysis (three hierarchal endpoints),[17],did not meet all three endpoints
same,outcome of the primary analysis (three hierarchal endpoints),"rasagiline 2 mg/day, all subjects, listed as Rasagiline",did not meet all endpoints
